From article PMC3685270 (Clinical pharmacology and therapeutics, 2011)
Converted amounts (≈) assume the structure as drawn. “Also recorded” adds a separate entry of the source. Like-named read-outs stand apart in the source and are kept apart here. Values belong to the compound of their own block, whether it stands above or below them.

Legend:
Pgp at the human BBB [1] = assay: [^11C]-N-desmethyl-loperamide PET after tariquidar in healthy human subjects; assay type: in vivo; conditions: humans, without tariquidar
Unmetabolized = assay type: in vivo, human; conditions: AUC 0-40 min, different tariquidar doses vs 0 mg/kg
[2] = previous studies (human and rat); cited from earlier work
Pgp at the human BBB [3] = conditions: 2 mg/kg dose; cited from earlier work
[4] = biological target: T1, P-glycoprotein (Pgp) at the blood-brain barrier (Homo sapiens, UniProt P08183); assay type: in vivo; conditions: for EC50: tariquidar plasma concentration at end of PET scan
T1 sequence (P08183 whole entry): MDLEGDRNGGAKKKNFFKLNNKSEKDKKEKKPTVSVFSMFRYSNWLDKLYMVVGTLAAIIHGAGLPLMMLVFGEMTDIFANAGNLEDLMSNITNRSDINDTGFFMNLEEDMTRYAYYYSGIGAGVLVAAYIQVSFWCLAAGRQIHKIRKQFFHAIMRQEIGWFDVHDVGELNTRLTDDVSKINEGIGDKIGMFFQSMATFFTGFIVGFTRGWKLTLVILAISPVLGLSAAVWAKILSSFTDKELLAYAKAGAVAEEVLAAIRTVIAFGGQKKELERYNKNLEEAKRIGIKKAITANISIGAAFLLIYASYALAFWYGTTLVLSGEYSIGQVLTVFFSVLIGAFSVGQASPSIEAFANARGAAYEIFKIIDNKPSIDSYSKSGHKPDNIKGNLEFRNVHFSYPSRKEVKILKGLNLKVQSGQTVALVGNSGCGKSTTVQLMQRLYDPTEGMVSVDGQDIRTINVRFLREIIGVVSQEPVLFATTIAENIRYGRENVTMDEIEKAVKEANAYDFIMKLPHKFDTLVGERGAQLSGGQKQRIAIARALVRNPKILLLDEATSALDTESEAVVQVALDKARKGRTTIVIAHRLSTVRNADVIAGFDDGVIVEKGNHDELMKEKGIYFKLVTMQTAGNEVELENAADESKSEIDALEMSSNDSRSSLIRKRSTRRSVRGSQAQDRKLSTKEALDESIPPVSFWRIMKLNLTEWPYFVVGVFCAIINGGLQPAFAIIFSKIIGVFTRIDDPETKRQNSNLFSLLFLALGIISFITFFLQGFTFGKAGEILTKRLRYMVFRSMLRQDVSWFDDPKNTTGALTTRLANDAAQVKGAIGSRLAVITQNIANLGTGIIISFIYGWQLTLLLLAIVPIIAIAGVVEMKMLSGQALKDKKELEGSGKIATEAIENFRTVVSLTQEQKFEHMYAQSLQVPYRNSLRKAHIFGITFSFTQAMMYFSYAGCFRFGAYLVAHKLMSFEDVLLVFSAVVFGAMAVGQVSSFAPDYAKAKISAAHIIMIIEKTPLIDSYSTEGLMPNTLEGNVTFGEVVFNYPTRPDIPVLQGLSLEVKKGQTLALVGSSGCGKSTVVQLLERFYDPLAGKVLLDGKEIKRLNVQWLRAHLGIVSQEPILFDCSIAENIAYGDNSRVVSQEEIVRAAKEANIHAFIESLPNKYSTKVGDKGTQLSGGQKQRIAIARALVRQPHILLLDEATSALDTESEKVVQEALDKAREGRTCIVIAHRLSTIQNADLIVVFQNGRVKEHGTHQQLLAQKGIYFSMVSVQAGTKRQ

[5] = system: Pgp in CD56-positive lymphocytes; conditions: single i.v. dose of 2 mg/kg, over 24 h; cited from earlier work
[6] = humans; cited from earlier work
[7] = biological target: T1, P-glycoprotein (Pgp) at the blood-brain barrier; conditions: (R)-[^11C]verapamil whole brain, tariquidar 2 mg/kg, n=5, cited from earlier work
[8] = Safety monitoring / adverse events after tariquidar infusion; assay type: in vivo, human; conditions: for Tolerability: healthy subjects, 3, 4, 6 and 8 mg/kg i.v. infusion
[9] = assay type: in vivo, human; conditions: humans, maximum administered dose 8 mg/kg
[10] = rats, bolus administration of 30 mg/kg; cited from earlier work
[11] = system: breast cancer resistance protein (BCRP, ABCG2); conditions: cited from earlier work
[12] = system: P-glycoprotein (Pgp) at the blood-brain barrier; conditions: cited from earlier work
[13] = rat, tariquidar plasma concentration at end of PET scan, 0-60 min

Structure (SMILES): CNC(=O)C(CCN1CCC(O)(c2ccc(Cl)cc2)CC1)(c1ccccc1)c1ccccc1 [[^11C]-N-desmethyl-loperamide]
Baseline brain uptake lower as compared to (R)-[^11C]verapamil (Pgp at the human BBB [1]): 2 fold

EC50 ([4]; EC50, K1–K1 baseline (1T2K), human, 0-10 min): 0.806 µM
EC50 ([4]; EC50, K1–K1 baseline (2T4K), human, 0-40 min): 0.813 µM
EC50 ([4]; EC50, VT–VT baseline (2T4K), human, 0-40 min): 0.867 µM
n (Hill coefficient), K1–K1 baseline (1T2K) ([4]; human, 0-10 min): 6.2±3.5
n (Hill coefficient), K1–K1 baseline (2T4K) ([4]; human, 0-40 min): 6.3±3.5
n (Hill coefficient), VT–VT baseline (2T4K) ([4]; human, 0-40 min): 11.3±5.4
Tariquidar plasma concentration at which brain VT approached plateau levels ([4]; humans): > 1,000 ng/mL
Tariquidar plasma concentration at time of PET [9]: up to 1,312 ng/mL
Structure (SMILES): COc1cc2c(cc1OC)CN(CCc1ccc(NC(=O)c3cc(OC)c(OC)cc3NC(=O)c3cnc4ccccc4c3)cc1)CC2 [tariquidar]
Effect on concentration of unmetabolized (R)-[^11C]verapamil in plasma (Unmetabolized): lacked pharmacokinetic interactions; also recorded: did not affect
Effect of tariquidar on degree of plasma protein binding of (R)-[^11C]verapamil [2]: does not influence
Increase in brain penetration of [^11C]-N-desmethyl-loperamide (Pgp at the human BBB [3]): 25%
Block of Pgp in CD56-positive lymphocytes [5]: 100%
Terminal elimination half-life from plasma [6]: 13 to 23 h
K1 (1T2K) ([7]; 0-10 min): 0.051±0.006 (6) mL·mL^−1·min^−1
K1 (2T4K) ([7]; 0-40 min): 0.051±0.008 (11) mL·mL^−1·min^−1
VT (2T4K) ([7]; 0-40 min): 0.788±0.087 (2) mL·mL^−1
k2 (2T4K) ([7]; 0-40 min): 0.123±0.052 (57) min^−1
k3 (2T4K) ([7]; 0-40 min): 0.156±0.080 (123) min^−1
k4 (2T4K) ([7]; 0-40 min): 0.191±0.063 (42) min^−1
Hypotension adverse event ([8]; 8 mg/kg group, infusion stopped 20 min prematurely (7.2 mg/kg administered)): one case of moderate hypotension
Tolerability [8]: well tolerated at doses 4-times the clinically tried
Tolerability ([8]; listed as Tariquidar): generally well tolerated
Dysgeusia (relationship with study drug could not be excluded) ([8]; healthy subjects, 3-8 mg/kg): 6 out of 20
Vertigo (relationship with study drug could not be excluded) ([8]; healthy subjects, 3-8 mg/kg, 20 subjects): 3 subjects
Tariquidar plasma concentration at the time of the PET scan [10]: up to 7,000 ng/mL
Inhibition of BCRP [11]: inhibits
EC50, K1–K1 baseline (2T4K) [12, 13]: 0.441 ± 0.081 µg/mL (≈ 0.682 µM)
EC50, VT–VT baseline (2T4K) [12, 13]: 0.544 ± 0.032 µg/mL (≈ 0.841 µM)
Tariquidar plasma concentration at which brain VT approached plateau levels ([12]; rats): > 1,000 ng/mL
